We go through one molecule from patent US7462629B2, “Immunosuppressant compounds and compositions” (IRM LLC, priority 2003, dated 2008).

The EC50 is the concentration that produces a half-maximal response. Broadly, the ED50 is the midpoint of the dose-response relation.

The target of experiment [1] is T1, human EDG-1 (Homo sapiens, UniProt P21453).
T1 construct: expressed in transfected cells
The experiment in a line: EDG-1 (S1P1) GTP [γ-35S] binding assay, membranes from CHO cells. The experiment is classed as biochemical. The following applies: CHO membranes expressing human EDG-1. The procedure:
(§1) A. In Vitro: GPCR Activation Assay Measuring GTP [γ-^35S] Binding to Membranes Prepared from CHO Cells Expressing Human EDG Receptors
EDG-1 (S1P1) GTP [γ-^35S] binding assay: Homogenized membranes are prepared from CHO cell clones stably expressing a human EDG-1 N-terminal c-myc tag. Cells are grown in suspension in two 850 cm^2 roller bottles for three or fours days before harvesting. The cells are centrifuged down, washed once with cold PBS, and resuspended in ≦20 ml of Buffer A (20 mM HEPES, pH 7.4, 10 mM EDTA, EDTA-free complete protease inhibitor cocktail [1 tablet/25 ml]). The cell suspension is homogenized on ice, using a Polytron homogenizer at 30000 rpm at three intervals of 15 seconds each. The homogenate is first centrifuged at 2000 rpm on a tabletop low speed centrifuge for 10 minutes. The supernatant, after passing through a cell strainer, is then re-centrifuged at 50,000×g for 25 minutes at 4° C. The pellet is resuspended into buffer B (15% glycerol, 20 mM HEPES, pH 7.4, 0.1 mM EDTA, EDTA-free complete protease inhibitor cocktail [1 tablet/10 ml]). Protein concentration of the prep is determined using the BCA Protein Assay kit (Pierce) using BSA as standard. The membranes are aliquoted and kept frozen at −80° C.
Solutions of test compounds ranging from 10 mM to 0.01 nM are prepared in DMSO. S1P is diluted in 4% BSA solution as positive controls. […]

The subject of experiment [2] is blood lymphocytes. The experiment in a line: Measurement of circulating lymphocytes (blood lymphocyte depletion). The following applies: Mus musculus, mice, oral gavage, blood collected 6 and 24 hours after administration, read-out: ED50 (effective dose for 50% of blood lymphocyte depletion). The experiment is classed as in vivo, Mice (C57bl/6 male). The procedure: C. In Vivo: Screening Assays for Measurement of Blood Lymphocyte Depletion and Assessment of Heart Effect
Measurement of circulating lymphocytes: Compounds are dissolved in DMSO and diluted to obtain a final concentration of 4% DMSO (v/v, final concentration) and then further diluted in a constant volume of Tween80 25%/H2O, v/v. Tween80 25%/H2O (200 μl), 4% DMSO, and FTY720 (10 μg) are included as negative and positive controls, respectively. Mice (C57bl/6 male, 6-10 week-old) are administered 250-300 μL of compound solution orally by gavages under short isoflurane anesthesia.
Blood is collected from the retro-orbital sinus 6 and 24 hours after drug administration under short isoflurane anesthesia. Whole blood samples are subjected to hematology analysis. Peripheral lymphocyte counts are determined using an automated analyzer. Subpopulations of peripheral blood lymphocytes are stained by fluorochrome-conjugated specific antibodies and analyzed using a fluorescent activating cell sorter (Facscalibur). Two mice are used to assess the lymphocyte depletion activity of each compound screened. The result is an ED50, which is defined as the effective dose required displaying 50% of blood lymphocyte depletion.

The subject of experiment [3] is EDG-3, EDG-5, EDG-6 and EDG-8. The experiment in a line: EDG-3, -5, -6 and -8 GTP [γ-35S] binding assays (selectivity versus EDG-1). The experiment is classed as biochemical, human. The procedure:
as §1
For each membrane preparation, titration experiments are first run with S1P control to determine the optimal amount of membranes to be added per assay well. […] For example, 3-[6-(4-cyclohexyl-3-trifluoromethyl-benzyloxy)-3,4-dihydro-1H-isoquinolin-2-yl]-propionic acid (compound 9) has an EC50 of 0.2 nM in the above assay and is at least 1000 fold selective for EDG-1 compared to one or more of the other receptors including EDG-3, EDG-5, EDG-6 and EDG-8.

T1 sequence (P21453 whole entry): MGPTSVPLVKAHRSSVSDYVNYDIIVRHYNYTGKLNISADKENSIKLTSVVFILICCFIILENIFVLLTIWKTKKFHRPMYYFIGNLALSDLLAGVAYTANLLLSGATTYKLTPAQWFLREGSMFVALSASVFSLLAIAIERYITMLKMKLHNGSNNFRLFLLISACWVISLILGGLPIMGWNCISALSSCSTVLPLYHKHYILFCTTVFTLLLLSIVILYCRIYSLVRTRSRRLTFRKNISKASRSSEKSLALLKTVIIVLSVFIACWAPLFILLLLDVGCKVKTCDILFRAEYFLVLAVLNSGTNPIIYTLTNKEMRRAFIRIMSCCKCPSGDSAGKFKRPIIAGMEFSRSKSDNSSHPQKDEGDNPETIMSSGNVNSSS

`O=C(O)CCN1CCc2cc(OCc3ccc(C4CCCCC4)c(C(F)(F)F)c3)ccc2C1` [Compound 9, 3-[6-(4-cyclohexyl-3-trifluoromethyl-benzyloxy)-3,4-dihydro-1H-isoquinolin-2-yl]-propionic acid] yielded an EC50 in experiment [1] of 0.2 nM. The ED50 in experiment [2] was 0.2 mg/kg. For the same molecule, in experiment [3], the “selectivity for EDG-1 compared to one or more of EDG-3, EDG-5, EDG-6 and EDG-8” value is listed as “at least 1000 fold”.
